{"source": "paper PMC6277555", "about": "“Short Symmetric-End Antimicrobial Peptides Centered on β-Turn Amino Acids Unit Improve Selectivity and Stability” (Frontiers in Microbiology, 2018)", "key": {"[1]": {"test_system": "S. epidermidis ATCC 12228", "assay_type": "cell-based, Staphylococcus epidermidis", "description": "(§1) The minimal inhibitory concentration (MIC) was determined according to a previously described method ([Chou et al., 2016]). Bacteria were cultured overnight to mid-log phase in MHB at 37°C and then diluted to give final concentrations ranging from 2 × 10^5 to 7 × 10^5 CFU/mL. Then, 50 μL of serial twofold dilutions of the peptides were added to each well in 96-well microtiter plates with a mixed solution containing 0.01% acetic acid and 0.2% bovine serum albumin (BSA, Sigma) was used to dissolve and dilute the peptides. Then, equal amounts of bacterial aliquots were incubated with the above peptide solution for 18–24 h at 37°C. The experiment was performed in triplicate using three replicates for each peptide and each bacterium. The broth was employed as a negative control and the broth with microbial cells was used as a positive control. The lowest concentration of peptide that prevented visible turbidity was defined as the MIC."}, "[2]": {"test_system": "E. coli ATCC25922", "assay_type": "cell-based, Escherichia coli", "description": "as §1, with “18-24” for “18–24”, “MIC. The condition sensitivity of peptides was tested in an MIC assay in different environments, including salt sensitivity, thermal sensitivity and different pH values similar to our previous method ([[…] et al., 2008]; [Ma et al., 2012]). […] For the heat resistance experiments, the peptides were incubated at 100°C for 30 min and cooled on ice for 10 min. […] The determination methods for these MIC assays were same as described above. To test the effects of serum on the antimicrobial activities of the peptides, human serum was dissolved in MHB to reach final concentrations of 25 and 50%. The determination methods for these MIC assays were same as described above.” for “MIC.”"}, "[3]": {"experiment": "Calcein dye leakage from negatively charged LUVs", "details": "POPG/CL (3:1) LUVs, 100 μM lipid, 15 min, all tested concentrations (2 to 64 μM); relative to 0.1% Triton X-100", "description": "Prepared calcein-entrapped large unilamellar vesicles (LUVs) were optimized using a previous method ([Stromstedt et al., 2009]). The negatively charged lipids composed of POPG/CL (3:1) were dissolved in chloroform, dried with a stream of nitrogen and resuspended in dye buffer solution (70 mM calcein, 10 mM Tris, 150 mM NaCl, and 0.1 mM EDTA, pH 7.4). The suspension was subjected to 10 freeze-thaw cycles in liquid nitrogen and extruded 21 times through polycarbonate filters (two stacked 100-nm pore size filters) with a LiposoFast extruder (Avestin, Inc., Canada). Untrapped calcein was removed by gel filtration on a Sephadex G-50 column. The lipid concentration was determined by quantitative phosphorus analysis. […] The leakage of calcein from LUVs was monitored by measuring the fluorescence intensity at an excitation wavelength of 490 nm and an emission wavelength of 520 nm on an F-4500 Fluorescence Spectrophotometer (Hitachi, Japan). […] The percentage of the calcein release caused by the AMPs was calculated using the following equation: (3) Dye release (%)=(Fobs−F0)/(F100−F0)×100% where F0 is the fluorescence intensity of the liposomes (background) and Fobs and F100 are the fluorescence intensities achieved by the peptides and Triton X-100, respectively."}, "[4]": {"test_system": "total genomic DNA from E. coli", "experiment": "DNA binding assay (gel retardation)", "set-up": "species or system Escherichia coli", "details": "1 h", "description": "Gel retardation experiments were performed as previously described ([Zhu et al., 2015]). The total genomic DNA from E. coli was extracted using the rapid bacterial genomic DNA isolation kit (Sangon Biotech, China). First, increasing concentrations of peptides were mixed with 400 ng of genomic DNA in 20 μL of binding buffer [5% glycerol, 10 mM Tris-HCl (pH 8.0), 1 mM EDTA, 1 mM dithiothreitol, 20 mM KCl, and 50 μg/mL bovine serum albumin] and incubated at 37°C for 1 h. Next, 4 μL of native loading buffer [10% Ficoll 400, 10 mM Tris-HCl (pH 7.5), 50 mM EDTA, 0.25% bromophenol blue, and 0.25% xylene cyanol] was mixed with the samples and a 12 μL aliquot was subjected to 1% agarose gel electrophoresis in 0.5× Tris borate-EDTA buffer (45 mM Tris-borate and 1 mM EDTA, pH 8.0). Finally, gel retardation was visualized using UVP bioimaging systems."}, "[5]": {"test_system": "S. aureus", "experiment": "Time killing assay", "assay_type": "cell-based, Staphylococcus aureus", "details": "mean of three independent assays", "description": "(§2) The ability of peptides to kill bacterial cells was further investigated by analyzing the fraction of cell survival upon peptide treatment at various exposure times according to a previously described method ([Wiradharma et al., 2012]). Briefly, E. coli and S. aureus were treated at MIC and 2 × MIC concentrations with peptides. At various time periods (0, 5, 10, 30, 60, 90, 120, and 150 min), microbial suspensions were diluted at three different dilutions and plated on MHA plates. Microbial colonies were formed and counted after 24 h of incubation. The results were presented as the mean data from three independent assays."}, "[6]": {"test_system": "S. aureus ATCC 43300", "assay_type": "cell-based, Staphylococcus aureus", "description": "as §1"}, "[7]": {"test_system": "B. pyocyaneum ATCC 27853", "assay_type": "cell-based, Bacterium pyocyaneum", "description": "as §1"}, "[8]": {"test_system": "E. coli UB1005", "assay_type": "cell-based, Escherichia coli", "description": "as §1"}, "[9]": {"test_system": "E. coli", "experiment": "Time killing assay", "assay_type": "cell-based, Escherichia coli", "details": "mean of three independent assays", "description": "as §2"}}, "note": "Residues, ends and D or L forms follow the SMILES beside them."}
{"smiles": "CC[C@H](C)[C@H](N)C(=O)N[C@@H](Cc1c[nH]cn1)C(=O)N[C@@H](CCCCN)C(=O)N[C@@H](Cc1ccccc1)C(=O)N[C@@H](Cc1c[nH]c2ccccc12)C(=O)N[C@@H](CCCNC(=N)N)C(=O)N[C@@H](CS)C(=O)N[C@@H](CCCNC(=N)N)C(=O)N[C@@H](CCCNC(=N)N)C(=O)N[C@@H](CCCNC(=N)N)C(=O)N[C@@H](Cc1ccccc1)C(=O)N[C@@H](CS)C(=O)N[C@@H](CCCNC(=N)N)C(=O)N[C@@H](Cc1c[nH]c2ccccc12)C(=O)N[C@@H](Cc1ccccc1)C(=O)N[C@@H](CCCCN)C(=O)N[C@@H](Cc1c[nH]cn1)C(=O)N[C@H](C(N)=O)[C@@H](C)CC", "note": "[PQ] (H-IHKFWRCRRRFCRWFKHI-NH2; N-terminus assumed)", "values": [{"measurement": "MIC", "setting": "[1]", "value": 8, "unit": "µM"}, {"measurement": "MIC", "setting": "[2]; ATCC25922", "value": 16, "unit": "µM"}, {"measurement": "MIC, CaCl2", "setting": "[2]; ATCC25922", "value": 32, "unit": "µM"}, {"measurement": "MIC, Control", "setting": "[2]; ATCC25922", "value": 16, "unit": "µM"}, {"measurement": "MIC, FeCl3", "setting": "[2]; ATCC25922", "value": 8, "unit": "µM"}, {"measurement": "MIC, Heat (100°C)", "setting": "[2]; ATCC25922", "value": 32, "unit": "µM"}, {"measurement": "MIC, KCl", "setting": "[2]; ATCC25922", "value": 4, "unit": "µM"}, {"measurement": "MIC, MgCl2", "setting": "[2]; ATCC25922", "value": 4, "unit": "µM"}, {"measurement": "MIC, NH4Cl", "setting": "[2]; ATCC25922", "value": 4, "unit": "µM"}, {"measurement": "MIC, NaCl", "setting": "[2]; ATCC25922", "value": 8, "unit": "µM"}, {"measurement": "MIC, ZnCl2", "setting": "[2]; ATCC25922", "value": 4, "unit": "µM"}, {"measurement": "MIC, pH 4.0", "setting": "[2]; ATCC25922, pH 4", "value": 8, "unit": "μM"}, {"measurement": "MIC, pH 6.0", "setting": "[2]; ATCC25922, pH 6", "value": 8, "unit": "μM"}, {"measurement": "MIC, pH 8.0", "setting": "[2]; ATCC25922, pH 8", "value": 4, "unit": "μM"}, {"measurement": "MIC, pH 10.0", "setting": "[2]; ATCC25922, pH 10", "value": 4, "unit": "μM"}, {"measurement": "Dye leakage (calcein release)", "setting": "[3]", "value": "more than 40%"}, {"measurement": "Concentration showing DNA-binding ability", "setting": "[4]", "value": "> 128", "unit": "µM"}, {"measurement": "Time to kill S. aureus", "setting": "[5]; peptide at 1 × MIC", "value": 30, "unit": "min"}, {"measurement": "Time to kill S. aureus", "setting": "[5]; peptide at 2 × MIC", "value": 30, "unit": "min"}, {"measurement": "MIC", "setting": "[6]", "value": 8, "unit": "µM"}, {"measurement": "MIC", "setting": "[7]", "value": 8, "unit": "µM"}, {"measurement": "MIC", "setting": "[8]", "value": 8, "unit": "µM"}, {"measurement": "Time to kill E. coli", "setting": "[9]; peptide at 1 × MIC", "value": 30, "unit": "min"}, {"measurement": "Time to kill E. coli", "setting": "[9]; peptide at 2 × MIC", "value": 30, "unit": "min"}]}
